These results are taken from US20160130443A1, “PHTHALOCYANINE DYE USED FOR COLOR FILTER OF A LCD” (DOW GLOBAL TECHNOLOGIES LLC, priority 2013, published 2016).

Assay type in all cases: physicochemical
A short description of data set [1]: Solubility of dye in organic solvent at 25° C.
Data set [2] can be described thus: Thermal stability of dyes (mass loss measured by TGA). The settings on record: air atmosphere. Here is the method:
(1) Thermal Stability of Dyes (Mass Loss Measured by TGA):
The thermal stability of dye itself was determined by the mass loss of dye measured by TGA under air atmosphere at 230° C. for 1 hour. This evaluation reflects chemical stability of the dye itself

Data set [3] can be described thus: Thermal stability of films (chromaticity difference before and after hard baking). The settings on record: for Thermal stability of a film at 230° C. (ΔEab): film with acrylic resin baked at 230° C. under air for 1 hour, smaller = better heat resistance; for Thermal stability (in words): summary referring to Table 1. Here is the method:
The obtained dry film was baked at 230° C. under air for 1 hour to evaluate thermal stability of the film. Optical performance before and after baking (ΔEab value) was 1.6. A smaller ΔEab value indicates better heat resistance.
(4) Thermal Stability of Films (Chromaticity):
The wet film after spin coating is dried in oven at 90° C. for 30 minutes and then soft baked at 150° C. for 15 minutes. The chromaticity coordinates (L, a, b) are recorded with UltraScan Pro (Hunterlab) colorimeter. D65 light source is used and results are based on CIE Lab coordinates. After that the film is hard baked at target temperature (230° C.) for 1 hour and the new chromaticity coordinates (L′, a′, b′) are recorded with the method above. The thermal stability of a film is indicated by the difference of chromaticity coordinate before and after hard baking represented by the following formula;
ΔE=√{square root over ((L−L′)^2+(a−a′)^2+(b−b′)^2)}

On to `c1ccc2c(c1)C1=Nc3c4ccccc4c4[n]3[Cu-2]35[n]6c(c7ccccc7c6=NC6=[N+]3C(=N4)c3ccccc36)=NC2=[N+]15` [compound 4], for which, in data set [1], the “Solubility in PGMEA at 25° C. (wt %)” value is recorded as “insoluble” and the “Solubility in cyclohexanone at 25° C. (wt %)” value was “insoluble”. For the same molecule, the “Solubility in cyclohexanone and PGMEA (in words)” value in data set [1] (summary referring to Table 1) was “insoluble”. For the same molecule, the “Mass loss measured by TGA at 230° C. for 1 hour (%)” value in data set [2] came out at 0.02%.
With `CNc1ccc(Nc2cccc(C)c2)c2c1C(=O)c1ccccc1C2=O` [compound 1, C.I. solvent blue 63], in data set [3], the “Thermal stability of a film at 230° C. (ΔEab)” value came to 18.4 and the “Thermal stability (in words)” value was “very poor thermal stability”. Further, in data set [1], the “Solubility in PGMEA at 25° C. (wt %)” value was 1.23 wt % and the “Solubility in cyclohexanone at 25° C. (wt %)” value was 3.0 wt %. Further, in data set [2], the “Mass loss measured by TGA at 230° C. for 1 hour (%)” value is on record as 14.04%.
The like results for `CCCCOc1ccc(OCCCC)c2c1-c1nc-2nc2[nH]c(nc3nc(nc4[nH]c(n1)c1c(OCCCC)ccc(OCCCC)c41)-c1c(OCCCC)ccc(OCCCC)c1-3)c1c(OCCCC)ccc(OCCCC)c21` [compound 3] were, in that order, 21.5, “very poor thermal stability”, 0.17 wt %, 9.0 wt % and 13.08%.
The like results for C.I. disperse red 343 [compound 2] were, in that order, 13.3, “very poor thermal stability”, 1.98 wt %, 4.0 wt % and 9.56%.
